In patent EP2951180B1, “2,6,7,8 SUBSTITUTED PURINES AS HDM2 INHIBITORS” (Merck Sharp & Dohme Corp., priority 2013, dated 2014):

These compounds were tested against T1, HDM2 (Homo sapiens, UniProt Q00987) (assay: HDM2 FRET assay (inhibition of binding of FITC labeled p53-pocket peptide to HDM2)). Details: Table 17.2; read-out: FRET IC50.
T1 construct: Thioredoxin (N); made in house; host or cells: E. coli strain BL21(DE3)Rosetta
Method in brief: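 Final: 0.5 nM His-HDM2, 3 nM FITC peptide, 0.25 nM Tb anti-His Ab; PBS, 0.01% BSA, 0.01% Tween-20; 0.1% DMSO.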

T1 sequence (Q00987 17-125): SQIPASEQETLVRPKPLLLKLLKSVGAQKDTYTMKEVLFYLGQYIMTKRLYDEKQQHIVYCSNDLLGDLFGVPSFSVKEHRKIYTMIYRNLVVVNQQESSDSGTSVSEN

Going from C[C@@H]1CN(S(C)(=O)=O)CCN1c1nc2nc(-c3noc(=O)[nH]3)nc(N[C@H](C)C3CCC3)c2n1C[C@H]1CC[C@H](C)CC1 [Example 17.14, 3-(6-{[(1R)-1-cyclobutylethyl]amino}-7-[(trans-4-methylcyclohexyl)methyl]-8-[(2R)-2-methyl-4-(methylsulfonyl)piperazin-1-yl]-7H-purin-2-yl)-1,2,4-oxadiazol-5(4H)-one] to CC(C)S(=O)(=O)N1CCN(c2nc3nc(-c4noc(=O)[nH]4)nc(N[C@H](C)C4CCC4)c3n2C[C@H]2CC[C@H](C)CC2)[C@H](C)C1 [Example 17.17, 3-(6-{[(1R)-1-cyclobutylethyl]amino}-7-[(trans-4-methylcyclohexyl)methyl]-8-{(2R)-2-methyl-4-[(1-methylethyl)sulfonyl]piperazin-1-yl}-7H-purin-2-yl)-1,2,4-oxadiazol-5(4H)-one], the IC50 rises from 4.93 nM to 10.1 nM (2-fold). The first is the more potent here.

C[C@@H]1CN(C(=O)C(C)(C)C)CCN1c1nc2nc(-c3noc(=O)[nH]3)nc(N[C@H](C)C3CCC3)c2n1C[C@H]1CC[C@H](C)CC1 [Example 17.15, 3-(6-{[(1R)-1-cyclobutylethyl]amino}-8-[(2R)-4-(2,2-dimethylpropanoyl)-2-methylpiperazin-1-yl]-7-[(trans-4-methylcyclohexyl)methyl]-7H-purin-2-yl)-1,2,4-oxadiazol-5(4H)-one] and C[C@@H]1CN(C(=O)CO)CCN1c1nc2nc(-c3noc(=O)[nH]3)nc(N[C@H](C)C3CCC3)c2n1C[C@H]1CC[C@H](C)CC1 [Example 17.18, 3-(6-{[(1R)-1-cyclobutylethyl]amino}-8-[(2R)-4-(hydroxyacetyl)-2-methylpiperazin-1-yl]-7-[(trans-4-methylcyclohexyl)methyl]-7H-purin-2-yl)-1,2,4-oxadiazol-5(4H)-one] are within 1.5-fold of each other in IC50: 4.3 nM for the first, 3.79 nM for the second.

Compared with C[C@@H]1CN(C(=O)C2CC2)CCN1c1nc2nc(-c3noc(=O)[nH]3)nc(N[C@H](C)C3CCC3)c2n1C[C@H]1CC[C@H](C)CC1 [Example 17.16, 3-(6-{[(1R)-1-cyclobutylethyl]amino}-8-[(2R)-4-(cyclopropylcarbonyl) -2-methylpiperazin-1-yl]-7-[(trans-4-methylcyclohexyl)methyl]-7H-purin-2-yl)-1,2,4-oxadiazol-5(4H)-one], C[C@@H]1CN(C(=O)C2CC2)[C@@H](C)CN1c1nc2nc(-c3noc(=O)[nH]3)nc(N[C@H](C)C3CCC3)c2n1C[C@H]1CC[C@H](C)CC1 [Example 17.23, 3-(6-{[(1R)-1-cyclobutylethyl]amino}-8-[(2R,5S)-4-(cyclopropylcarbonyl) -2,5-dimethylpiperazin-1-yl]-7-[(trans-4-methylcyclohexyl)methyl]-7H-purin-2-yl)-1,2,4-oxadiazol-5(4H)-one] is 4-fold higher in IC50: 1.22 nM for the first, 4.88 nM for the second. The first is the more potent here.

C[C@@H]1CNCCN1c1nc2nc(-c3noc(=O)[nH]3)nc(N[C@H](C)C3CCC3)c2n1C[C@H]1CC[C@H](C)CC1 [Example 17.19, 3-(6-{[(1R)-1-cyclobutylethyl]amino}-7-[(trans-4-methylcyclohexyl)methyl]-8-[(2R)-2-methylpiperazin-1-yl]-7H-purin-2-yl)-1,2,4-oxadiazol-5(4H)-one] and C[C@@H]1CN[C@@H](C)CN1c1nc2nc(-c3noc(=O)[nH]3)nc(N[C@H](C)C3CCC3)c2n1C[C@H]1CC[C@H](C)CC1 [Example 17.21, 3-(6-{[(1R)-1-cyclobutylethyl]amino}-8-[(2R,5S)-2,5-dimethylpiperazin-1-yl]-7-[(trans-4-methylcyclohexyl)methyl]-7H-purin-2-yl)-1,2,4-oxadiazol-5(4H)-one] are within 1.5-fold of each other in IC50: 15.5 nM for the first, 20.1 nM for the second.

Compared with C[C@@H]1CN(C(=O)OC(C)(C)C)[C@@H](C)CN1c1nc2nc(-c3noc(=O)[nH]3)nc(N[C@H](C)C3CCC3)c2n1C[C@H]1CC[C@H](C)CC1 [Example 17.20, tert-butyl (2S,5R)-4-[6-{[(1R)-1-cyclobutylethyl]amino}-7-[(trans-4-methylcyclohexyl)methyl]-2-(5-oxo-4,5-dihydro-1,2,4-oxadiazol-3-yl)-7H-purin-8-yl]-2,5-dimethylpiperazine-1-carboxylate], CC(=O)N1C[C@@H](C)N(c2nc3nc(-c4noc(=O)[nH]4)nc(N[C@H](C)C4CCC4)c3n2C[C@H]2CC[C@H](C)CC2)C[C@@H]1C [Example 17.22, 3-{8-[(2R,5S)-4-acetyl-2,5-dimethylpiperazin-1-yl]-6-{[(1R)-1-cyclobutylethyl]amino}-7-[(trans-4-methylcyclohexyl)methyl]-7H-purin-2-yl}-1,2,4-oxadiazol-5(4H)-one] is 3.4-fold lower in IC50: 14.7 nM for the first, 4.35 nM for the second.

Same assay, conditions: Table 18; read-out: FRET IC50

Going from CC(C)c1ccnc(-c2nc3nc(C(=O)O)nc(N[C@H](C)C4CCC4)c3n2C[C@H]2CC[C@H](C(F)(F)F)CC2)c1 [Example 18.1, 6-(((R)-1-cyclobutylethyl)amino)-8-(4-isopropylpyridin-2-yl)-7-((trans-4-(trifluoromethyl)cyclohexyl)methyl)-7H-purine-2-carboxylic acid] to CC(C)c1ccnc(-c2nc3nc(C(=O)O)nc(N[C@H](C)C4CCC4)c3n2C[C@H]2CC[C@H](CF)CC2)c1 [Example 18.10, 6-(((R)-1-cyclobutylethyl)amino)-7-((trans-4-(fluoromethyl)cyclohexyl)methyl)-8-(4-isopropylpyridin-2-yl)-7H-purine-2-carboxylic acid], the IC50 rises from 3.46 nM to 9.38 nM (2.7-fold). The first is the more potent here.

CC(C)c1ccnc(-c2nc3nc(C(=O)O)nc(N[C@H](C)C4CCC4)c3n2CC2CCC(F)(F)CC2)c1 [Example 18.3, (R)-6-((1-cyclobutylethyl)amino)-7-((4,4-difluorocyclohexyl)methyl)-8-(4-isopropylpyridin-2-yl)-7H-purine-2-carboxylic acid] and CC(C)c1ccnc(-c2nc3nc(C(=O)O)nc(N[C@H](C)C4CCC4)c3n2CC2CCC(C)(C)CC2)c1 [Example 18.8, (R)-6-((1-cyclobutylethyl)amino)-7-((4,4-dimethylcyclohexyl)methyl)-8-(4-isopropylpyridin-2-yl)-7H-purine-2-carboxylic acid] are within 1.5-fold of each other in IC50: 57.4 nM for the first, 59.5 nM for the second.

Compared with CCC1CCC(Cn2c(-c3cc(C(C)C)ccn3)nc3nc(-c4noc(=O)[nH]4)nc(N[C@H](C)C4CCC4)c32)C1 (stereo partly drawn) [Example 18.4, 3-(6-(((R)-1-cyclobutylethyl)amino)-7-((3-ethylcyclopentyl)methyl) -8-(4-isopropylpyridin-2-yl)-7H-purin-2-yl)-1,2,4-oxadiazol-5(4H)-one], CC[C@H]1CC[C@H](Cn2c(-c3cc(C(C)C)ccn3)nc3nc(-c4noc(=O)[nH]4)nc(N[C@H](C)C4CCC4)c32)CC1 [Example 18.20, 3-(6-{[(1R)-1-cyclobutylethyl]amino}-7-[(trans-4-ethylcyclohexyl)methyl]-8-[4-(1-methylethyl)pyridin-2-yl]-7H-purin-2-yl)-1,2,4-oxadiazol-5(4H)-one] is 8.3-fold lower in IC50: 131 nM for the first, 15.7 nM for the second. The second is the more potent here.

Going from CC1=CCC(Cn2c(-c3cc(C(C)C)ccn3)nc3nc(C(=O)O)nc(N[C@H](C)C4CCC4)c32)CC1 (stereo partly drawn) [Example 18.5, 6-(((R)-1-cyclobutylethyl)amino)-8-(4-isopropylpyridin-2-yl)-7-((4-methylcyclohex-3-en-1-yl)methyl)-7H-purine-2-carboxylic acid] to CCC1=CCC(Cn2c(-c3cc(C(C)C)ccn3)nc3nc(C(=O)O)nc(N[C@H](C)C4CCC4)c32)CC1 (stereo partly drawn) [Example 18.6, 6-(((R)-1-cyclobutylethyl)amino)-7-((4-ethylcyclohex-3-en-1-yl)methyl)-8-(4-isopropylpyridin-2-yl)-7H-purine-2-carboxylic acid], the IC50 rises from 6.48 nM to 15.9 nM (2.5-fold). The first is the more potent here.

Going from CCC1=CCC(Cn2c(-c3cc(C(C)C)ccn3)nc3nc(-c4noc(=O)[nH]4)nc(N[C@H](C)C4CCC4)c32)CC1 (stereo partly drawn) [Example 18.7, 3-(6-(((R)-1-cyclobutylethyl)amino)-7-((4-ethylcyclohex-3-en-1-yl)methyl)-8-(4-isopropylpyridin-2-yl)-7H-purin-2-yl)-1,2,4-oxadiazol-5(4H)-one] to CC(C)c1ccnc(-c2nc3nc(-c4noc(=O)[nH]4)nc(N[C@H](C)C4CCC4)c3n2CC2CCC(C)(C)CC2)c1 [Example 18.9, (R)-3-(6-((1-cyclobutylethyl)amino)-7-((4,4-dimethylcyclohexyl)methyl)-8-(4-isopropylpyridin-2-yl)-7H-purin-2-yl)-1,2,4-oxadiazol-5(4H)-one], the IC50 rises from 44 nM to 394 nM (9-fold).

Compared with CC[C@H]1CC[C@H](Cn2c(-c3cccc(C)c3)nc3nc(C(=O)O)nc(N[C@H](C)C4CCC4)c32)CC1 [Example 18.15, 6-{[(1R)-1-cyclobutylethyl]amino}-7-[(trans-4-ethylcyclohexyl)methyl]-8-(3-methylphenyl)-7H-purine-2-carboxylic acid], CC[C@H]1CC[C@H](Cn2c(-c3cc(C)ccc3OC)nc3nc(C(=O)O)nc(N[C@H](C)C4CCC4)c32)CC1 [Example 18.16, 6-{[(1R)-1-cyclobutylethyl]amino}-7-[(trans-4-ethylcyclohexyl)methyl]-8-(2-methoxy-5-methylphenyl)-7H-purine-2-carboxylic acid] is 6.3-fold lower in IC50: 201 nM for the first, 31.8 nM for the second.

Compared with CC[C@H]1CC[C@H](Cn2c(N3CCCCC3)nc3nc(C(=O)O)nc(N[C@H](C)C4CCC4)c32)CC1 [Example 18.18, 6-{[(1R)-1-cyclobutylethyl]amino}-7-[(trans-4-ethylcyclohexyl)methyl]-8-piperidin-1-yl-7H-purine-2-carboxylic acid], CC[C@H]1CC[C@H](Cn2c(N3CCOCC3)nc3nc(C(=O)O)nc(N[C@H](C)C4CCC4)c32)CC1 [Example 18.19, 6-{[(1R)-1-cyclobutylethyl]amino}-7-[(trans-4-ethylcyclohexyl)methyl]-8-morpholin-4-yl-7H-purine-2-carboxylic acid] is 1.5-fold higher in IC50: 8.6 nM for the first, 13.1 nM for the second.

In the case of CC[C@H]1CC[C@H](Cn2c(N3CCOC[C@H]3c3ccccc3)nc3nc(C(=O)O)nc(N[C@H](C)C4CCC4)c32)CC1 [Example 18.21, 6-{[(1R)-1-cyclobutylethyl]amino}-7-[(trans-4-ethylcyclohexyl)methyl]-8-[(3R)-3-phenylmorpholin-4-yl]-7H-purine-2-carboxylic acid], the IC50 is reported as 0.548 nM.
